Measured values: patent US20250262201A1, “COMPOUNDS AND METHODS USEFUL FOR STABILIZING PHENYLALANINE HYDROXYLASE MUTATIONS” (Agios Pharmaceuticals, Inc., priority 2022, published 2025)

molecular target: T1, human PAH with the R408W mutation (Homo sapiens, UniProt P00439, R408W); test: Cell Based Phenylalanine Flux Assay; details: A375 cells expressing human R408W PAH; 24 hrs compound incubation; 13C-Tyrosine by LC-MS; average where tested multiple times; read-out: AC50
T1 construct: expressed in transfected cells
T1 sequence (P00439 1-452 R408W): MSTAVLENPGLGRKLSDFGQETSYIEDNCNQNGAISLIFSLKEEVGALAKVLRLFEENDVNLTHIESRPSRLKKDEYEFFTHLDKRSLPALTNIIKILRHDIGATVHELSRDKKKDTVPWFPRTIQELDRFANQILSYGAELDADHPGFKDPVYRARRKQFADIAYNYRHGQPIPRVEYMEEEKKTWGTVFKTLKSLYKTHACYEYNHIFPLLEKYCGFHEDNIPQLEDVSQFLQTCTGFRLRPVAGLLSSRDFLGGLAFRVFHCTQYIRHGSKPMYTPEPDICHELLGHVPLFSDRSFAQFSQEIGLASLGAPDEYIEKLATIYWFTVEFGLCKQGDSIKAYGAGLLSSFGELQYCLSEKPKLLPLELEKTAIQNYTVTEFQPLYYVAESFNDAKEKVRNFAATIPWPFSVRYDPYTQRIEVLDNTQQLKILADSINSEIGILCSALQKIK

`O=C(c1cnn2cc(-c3ccncn3)ccc12)N1CCc2[nH]cnc2[C@H]1c1cc2ccccc2cn1` [Example 476, (R)-(4-(isoquinolin-3-yl)-6,7-dihydro-1H-imidazo[4,5-c]pyridin-5(4H)-yl)(6-(pyrimidin-4-yl)pyrazolo[1,5-a]pyridin-3-yl)methanone] and `O=C(c1cnn2cc(-c3cnccn3)ccc12)N1CCc2[nH]cnc2[C@H]1c1cc2ccccc2cn1` [Example 477, (R)-(4-(isoquinolin-3-yl)-6,7-dihydro-1H-imidazo[4,5-c]pyridin-5(4H)-yl)(6-(pyrazin-2-yl)pyrazolo[1,5-a]pyridin-3-yl)methanone] cannot be ordered by AC50: less than 500 nM for the first, less than 500 nM for the second.

First: O=C(c1cnn2cc(N3CCC(O)CC3)ccc12)N1CCc2[nH]cnc2[C@H]1c1cc2ccccc2cn1 [Example 478, (R)-(6-(4-hydroxypiperidin-1-yl)pyrazolo[1,5-a]pyridin-3-yl)(4-(isoquinolin-3-yl)-6,7-dihydro-1H-imidazo[4,5-c]pyridin-5(4H)-yl)methanone]
Second: O=C(c1cnn2cc(N3CCCC3)ccc12)N1CCc2[nH]cnc2[C@H]1c1cc2ccccc2cn1 [Example 489, (R)-(4-(isoquinolin-3-yl)-6,7-dihydro-1H-imidazo[4,5-c]pyridin-5(4H)-yl)(6-(pyrrolidin-1-yl)pyrazolo[1,5-a]pyridin-3-yl)methanone]
The AC50 of the first is higher: 500 to 1000 nM for the first, less than 500 nM for the second.

`Cc1cccc(-c2ccc3c(C(=O)N4CCc5[nH]cnc5[C@H]4c4cc5ccccc5cn4)cnn3c2)n1` [Example 479, (R)-(4-(isoquinolin-3-yl)-6,7-dihydro-1H-imidazo[4,5-c]pyridin-5(4H)-yl)(6-(6-methylpyridin-2-yl)pyrazolo[1,5-a]pyridin-3-yl)methanone] and `Cn1ccc(-c2ccc3c(C(=O)N4CCc5[nH]cnc5[C@H]4c4cc5ccccc5cn4)cnn3c2)n1` [Example 481, (R)-(4-(isoquinolin-3-yl)-6,7-dihydro-1H-imidazo[4,5-c]pyridin-5(4H)-yl)(6-(1-methyl-1H-pyrazol-3-yl)pyrazolo[1,5-a]pyridin-3-yl)methanone] cannot be ordered by AC50: less than 500 nM for the first, less than 500 nM for the second.

`Cc1ncccc1-c1ccc2c(C(=O)N3CCc4[nH]cnc4[C@H]3c3cc4ccccc4cn3)cnn2c1` [Example 480, (R)-(4-(isoquinolin-3-yl)-6,7-dihydro-1H-imidazo[4,5-c]pyridin-5(4H)-yl)(6-(2-methylpyridin-3-yl)pyrazolo[1,5-a]pyridin-3-yl)methanone] and `O=C(c1cnn2cc(-c3ncccc3F)ccc12)N1CCc2[nH]cnc2[C@H]1c1cc2ccccc2cn1` [Example 482, (R)-(6-(3-fluoropyridin-2-yl)pyrazolo[1,5-a]pyridin-3-yl)(4-(isoquinolin-3-yl)-6,7-dihydro-1H-imidazo[4,5-c]pyridin-5(4H)-yl)methanone] cannot be ordered by AC50: less than 500 nM for the first, less than 500 nM for the second.

`O=C(c1cnn2cc(-c3ncccn3)ccc12)N1CCc2[nH]cnc2[C@H]1c1cc2ccccc2cn1` [Example 483, (R)-(4-(isoquinolin-3-yl)-6,7-dihydro-1H-imidazo[4,5-c]pyridin-5(4H)-yl)(6-(pyrimidin-2-yl)pyrazolo[1,5-a]pyridin-3-yl)methanone] and `O=C(c1cnn2cc(-c3ccncc3)ccc12)N1CCc2[nH]cnc2[C@H]1c1cc2ccccc2cn1` [Example 486, (R)-(4-(isoquinolin-3-yl)-6,7-dihydro-1H-imidazo[4,5-c]pyridin-5(4H)-yl)(6-(pyridin-4-yl)pyrazolo[1,5-a]pyridin-3-yl)methanone] cannot be ordered by AC50: less than 500 nM for the first, less than 500 nM for the second.

`O=C(c1cnn2cc(CN3CCOCC3)ccc12)N1CCc2[nH]cnc2[C@H]1c1cc2ccccc2cn1` [Example 484, (R)-(4-(isoquinolin-3-yl)-6,7-dihydro-1H-imidazo[4,5-c]pyridin-5(4H)-yl)(6-(morpholinomethyl)pyrazolo[1,5-a]pyridin-3-yl)methanone] and `CN1CCN(Cc2ccc3c(C(=O)N4CCc5[nH]cnc5[C@H]4c4cc5ccccc5cn4)cnn3c2)CC1` [Example 488, (R)-(4-(isoquinolin-3-yl)-6,7-dihydro-1H-imidazo[4,5-c]pyridin-5(4H)-yl)(6-((4-methylpiperazin-1-yl)methyl)pyrazolo[1,5-a]pyridin-3-yl)methanone] cannot be ordered by AC50: less than 500 nM for the first, less than 500 nM for the second.

`O=C(c1cnn2cc(-c3ccccc3)ccc12)N1CCc2[nH]cnc2[C@H]1c1cc2ccccc2cn1` [Example 485, (R)-(4-(isoquinolin-3-yl)-6,7-dihydro-1H-imidazo[4,5-c]pyridin-5(4H)-yl)(6-phenylpyrazolo[1,5-a]pyridin-3-yl)methanone] and `O=C(c1cnn2cc(-c3cncnc3)ccc12)N1CCc2[nH]cnc2[C@H]1c1cc2ccccc2cn1` [Example 487, (R)-(4-(isoquinolin-3-yl)-6,7-dihydro-1H-imidazo[4,5-c]pyridin-5(4H)-yl)(6-(pyrimidin-5-yl)pyrazolo[1,5-a]pyridin-3-yl)methanone] cannot be ordered by AC50: less than 500 nM for the first, less than 500 nM for the second.

First: Cc1nnc(C(=O)N2CC3(CC3)c3[nH]cnc3[C@H]2c2cc3ccccc3cn2)o1 [Example 490, (R)-(4′-(isoquinolin-3-yl)spiro[cyclopropane-1,7′-imidazo[4,5-c]pyridin]-5′(1′H,4′H,6′H)-yl)(5-methyl-1,3,4-oxadiazol-2-yl)methanone]
Second: Cc1ncoc1C(=O)N1CC2(CC2)c2[nH]cnc2[C@@H]1c1cc2ccccc2cn1 [Example 492, (S)-(4′-(isoquinolin-3-yl)spiro[cyclopropane-1,7′-imidazo[4,5-c]pyridin]-5′(1′H,4′H,6′H)-yl)(4-methyloxazol-5-yl)methanone]
The AC50 of the first is lower: less than 500 nM for the first, greater than 5000 nM for the second.

First: Cc1ncoc1C(=O)N1CC2(CC2)c2[nH]cnc2[C@H]1c1cc2ccccc2cn1 [Example 493, (R)-(4′-(isoquinolin-3-yl)spiro[cyclopropane-1,7′-imidazo[4,5-c]pyridin]-5′(1′H,4′H,6′H)-yl)(4-methyloxazol-5-yl)methanone]
Second: C[C@H]1CN(C(=O)c2nnc(C(C)(C)F)o2)[C@@H](c2cc3ccccc3cn2)c2nc[nH]c21 [Example 498, (5-(2-fluoropropan-2-yl)-1,3,4-oxadiazol-2-yl)((4S,7S)-4-(isoquinolin-3-yl)-7-methyl-6,7-dihydro-1H-imidazo[4,5-c]pyridin-5(4H)-yl)methanone]
The AC50 of the first is lower: less than 500 nM for the first, 1000 to 5000 nM for the second.

`C[C@@H]1CN(C(=O)c2nnc(-c3ccc(F)cn3)o2)[C@H](c2cc3ccccc3cn2)c2nc[nH]c21` [Example 494, (5-(5-fluoropyridin-2-yl)-1,3,4-oxadiazol-2-yl)((4R,7R)-4-(isoquinolin-3-yl)-7-methyl-6,7-dihydro-1H-imidazo[4,5-c]pyridin-5(4H)-yl)methanone] and `C[C@H]1CN(C(=O)c2nnc(-c3ccc(F)cn3)o2)[C@H](c2cc3ccccc3cn2)c2nc[nH]c21` [Example 496, (5-(5-fluoropyridin-2-yl)-1,3,4-oxadiazol-2-yl)((4R,7S)-4-(isoquinolin-3-yl)-7-methyl-6,7-dihydro-1H-imidazo[4,5-c]pyridin-5(4H)-yl)methanone] fall in the same range of AC50: 1000 to 5000 nM for the first, 1000 to 5000 nM for the second.

`C[C@H]1CN(C(=O)c2nnc(-c3ccc(F)cn3)o2)[C@@H](c2cc3ccccc3cn2)c2nc[nH]c21` [Example 497, (5-(5-fluoropyridin-2-yl)-1,3,4-oxadiazol-2-yl)((4S,7S)-4-(isoquinolin-3-yl)-7-methyl-6,7-dihydro-1H-imidazo[4,5-c]pyridin-5(4H)-yl)methanone] gave an AC50 of 1000 to 5000 nM.
